Experiments:
Assay in all cases: TPP-CCR in living HL-60 cells
Assay type in all cases: cell-based
CHMP4B = target: T1, CHMP4B (Homo sapiens, UniProt Q9H444)
T1 construct: endogenous in cells; host or cells: HL-60 (ATCC CCL-240)
T1 sequence (Q9H444 1-224): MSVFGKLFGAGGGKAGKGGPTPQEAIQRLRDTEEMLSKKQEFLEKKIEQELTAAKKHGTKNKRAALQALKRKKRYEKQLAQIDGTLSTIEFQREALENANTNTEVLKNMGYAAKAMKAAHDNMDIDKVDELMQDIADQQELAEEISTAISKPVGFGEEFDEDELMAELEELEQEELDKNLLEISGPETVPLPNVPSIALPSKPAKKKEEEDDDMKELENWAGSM

SMIM12 = target: T2, SMIM12 (Homo sapiens, UniProt Q96EX1)
T2 construct: endogenous in cells; host or cells: HL-60 (ATCC CCL-240)
T2 sequence (Q96EX1 1-92): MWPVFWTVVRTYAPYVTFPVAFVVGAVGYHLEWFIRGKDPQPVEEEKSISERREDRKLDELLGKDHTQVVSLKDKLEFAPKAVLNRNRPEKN

VAPA = target: T3, VAPA (Homo sapiens, UniProt Q9P0L0)
T3 construct: dose–responses (mean over replicates), derived from TPP-CCR experiments in living cells; endogenous in cells; host or cells: HL-60 cells (ATCC No. CCL-240)
T3 sequence (Q9P0L0 1-249): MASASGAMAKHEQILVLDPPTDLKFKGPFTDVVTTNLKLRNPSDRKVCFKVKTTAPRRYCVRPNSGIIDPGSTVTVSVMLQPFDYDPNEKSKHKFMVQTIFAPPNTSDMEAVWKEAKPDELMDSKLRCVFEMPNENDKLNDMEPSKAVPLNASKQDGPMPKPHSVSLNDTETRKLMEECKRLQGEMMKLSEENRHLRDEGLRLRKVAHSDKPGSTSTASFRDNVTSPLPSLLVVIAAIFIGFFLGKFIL

[1] = living HL-60 cells, […] °C, TMT-MS

How did the Hill slope (CHMP4B; TPP-CCR, living cells, CHMP4B) turn out when `Cc1cnc(Nc2ccc(F)cc2Cl)nc1-c1c[nH]c(C(=O)N[C@H](CO)c2cccc(Cl)c2)c1` [ERK 11e] was run?
Its Hill slope is 0.21.

What about the “Hill slope (CHMP4B)” value (CHMP4B; [1]) of the same compound?
The value was 0.21.

And the EC50 (CHMP4B; living HL-60 cells, […] °C, TMT-MS, read-out: pEC50 (CHMP4B) (converted))?
Its EC50 is 41.7 nM.

And the Hill slope (SMIM12; TPP-CCR, living cells, SMIM12)?
Its Hill slope is 0.47.

What about the “Hill slope (SMIM12)” value (SMIM12; [1]) of the same compound?
The value was 0.47.

And the EC50 (SMIM12; living HL-60 cells, […] °C, TMT-MS, read-out: pEC50 (SMIM12) (converted))?
The EC50 was 427 nM.

And the Hill slope (VAPA; TPP-CCR, living cells, VAPA)?
The Hill slope was 0.66.

And the EC50 (VAPA; [1])?
The EC50 was 1550 nM.

What about the “Hill slope (VAPA)” value (VAPA; [1]) of the same compound?
The value was 0.66.
